Data as given in patent US9714236B2, “Compounds and methods for inhibiting JAK” (AstraZeneca AB, priority 2015, dated 2017).

Assays:
Type in all cases: biochemical
[1] = target: recombinant JAK3 (amino acids 781-1124) (Homo sapiens (Human), UniProt P52333); test: Enzyme inhibition studies, JAK3 (peptide phosphorylation, Caliper LC3000); conditions: ATP concentration of the tabulated values not stated (assayed at ATP Km 3 μM and at 5 mM)
Description: (§1) Enzyme inhibition studies were performed using recombinant JAK1 (amino acids 866-1154, Life Technologies, #PV4774, Carlsbad, Calif.), JAK2 (amino acids 831-1132), or JAK3 (amino acids 781-1124) under buffer conditions of 50 mM HEPES pH 7.3, 1 mM DTT, 0.01% Tween® 20, 50 μg/mL BSA, and 10 mM MgCl2. JAK enzyme was expressed as an N-terminal GST fusion in insect cells and purified by glutathione-affinity and size-exclusion chromatographies. […] Phosphorylated and unphosphorylated peptides were separated and quantified by a Caliper LC3000 system (Caliper Life Sciences, MA) for calculating percent inhibition.

[2] = target: recombinant JAK1 (amino acids 866-1154) (Homo sapiens (Human), UniProt P23458); test: Enzyme inhibition studies, JAK1 (peptide phosphorylation, Caliper LC3000); conditions: ATP concentration not given (assayed at ATP Km 55 μM and at 5 mM)
Description: as §1

[3] = target: recombinant JAK2 (amino acids 831-1132) (Homo sapiens (Human), UniProt O60674); test: Enzyme inhibition studies, JAK2 (peptide phosphorylation, Caliper LC3000); conditions: ATP concentration of the tabulated values not stated (assayed at ATP Km 15 μM and at 5 mM)
Description: as §1

recombinant JAK2 (amino acids 831-1132), sequence (O60674 831-1132): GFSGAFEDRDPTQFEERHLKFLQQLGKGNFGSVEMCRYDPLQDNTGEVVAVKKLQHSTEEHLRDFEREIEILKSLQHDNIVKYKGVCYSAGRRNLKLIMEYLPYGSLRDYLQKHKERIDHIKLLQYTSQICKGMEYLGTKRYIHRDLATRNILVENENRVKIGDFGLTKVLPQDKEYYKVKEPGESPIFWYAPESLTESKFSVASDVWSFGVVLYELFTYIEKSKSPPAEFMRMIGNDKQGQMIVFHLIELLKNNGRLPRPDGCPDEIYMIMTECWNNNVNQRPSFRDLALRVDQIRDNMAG
recombinant JAK1 (amino acids 866-1154), sequence (P23458 866-1154): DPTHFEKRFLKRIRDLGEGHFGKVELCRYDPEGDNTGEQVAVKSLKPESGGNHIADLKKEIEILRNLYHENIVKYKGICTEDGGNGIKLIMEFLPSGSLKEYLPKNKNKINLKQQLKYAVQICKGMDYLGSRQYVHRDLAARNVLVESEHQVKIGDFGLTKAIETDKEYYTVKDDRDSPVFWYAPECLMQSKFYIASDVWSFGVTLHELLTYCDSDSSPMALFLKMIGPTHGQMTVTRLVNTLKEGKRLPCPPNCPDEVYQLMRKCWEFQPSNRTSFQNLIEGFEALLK
recombinant JAK3 (amino acids 781-1124), sequence (P52333 781-1124): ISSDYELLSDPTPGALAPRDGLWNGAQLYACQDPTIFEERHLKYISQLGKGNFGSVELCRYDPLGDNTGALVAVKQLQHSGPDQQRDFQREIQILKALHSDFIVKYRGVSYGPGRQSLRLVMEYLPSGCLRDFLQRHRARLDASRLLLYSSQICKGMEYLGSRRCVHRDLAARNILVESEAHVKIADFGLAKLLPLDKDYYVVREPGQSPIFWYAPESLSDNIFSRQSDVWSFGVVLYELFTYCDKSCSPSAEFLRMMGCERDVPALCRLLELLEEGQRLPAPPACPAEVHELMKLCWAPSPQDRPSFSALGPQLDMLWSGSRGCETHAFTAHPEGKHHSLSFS

Row | IC50 [1] | IC50 [2] | IC50 [3] | SMILES
1 | > 30 µM | 0.029 µM | 25.7 µM | CCOc1nn(C)cc1Nc1ncc(C)c(-c2c[nH]c3c(NC(=O)[C@@H](C)N4CCN(C)C[C@H]4C)cccc23)n1 [Example 23, (2R)-2-[(2R)-2,4-dimethylpiperazin-1-yl]-N-(3-{2-[(3-ethoxy-1-methyl-1H-pyrazol-4-yl)amino]-5-methylpyrimidin-4-yl}-1H-indol-7-yl)propanamide]
2 | > 30 µM | 0.04 µM | > 30 µM | CCOc1nn(C)cc1Nc1ncc(F)c(-c2c[nH]c3c(NC(=O)[C@@H](C)N4CCN(C)[C@@H](C)C4)cccc23)n1 [Example 11a, (2R)-2-[(3S)-3,4-dimethylpiperazin-1-yl]-N-(3-{2-[(3-ethoxy-1-methyl-1H-pyrazol-4-yl)amino]-5-fluoropyrimidin-4-yl}-1H-indol-7-yl)propanamide]
3 | > 30 µM | 0.069 µM | 9.26 µM | Cc1nn(C)cc1Nc1nccc(-c2c[nH]c3c(NC(=O)[C@@H](C)N4CCN(C)CC4)cccc23)n1 [Example 57, (2R)-N-(3-{2-[(1,3-dimethyl-1H-pyrazol-4-yl)amino]pyrimidin-4-yl}-1H-indol-7-yl)-2-(4-methylpiperazin-1-yl)propanamide]
4 | > 30 µM | 0.106 µM | 21.1 µM | Cc1cnc(Nc2cn(C)nc2C)nc1-c1c[nH]c2c(NC(=O)[C@H](C)N3CCN(C)CC3)cccc12 [Example 42, (2S)-N-(3-{2-[(1,3-dimethyl-1H-pyrazol-4-yl)amino]-5-methylpyrimidin-4-yl}-1H-indol-7-yl)-2-(4-methylpiperazin-1-yl)propanamide]
5 | > 30 µM | 0.024 µM | 8.93 µM | CCOc1nn(C)cc1Nc1ncc(Cl)c(-c2c[nH]c3c(NC(=O)[C@@H](C)N4CCN(C)CC4)cccc23)n1 [Example 40, (2R)-N-(3-{5-chloro-2-[(3-ethoxy-1-methyl-1H-pyrazol-4-yl)amino]pyrimidin-4-yl}-1H-indol-7-yl)-2-(4-methylpiperazin-1-yl)propanamide]
6 | > 30 µM | 0.019 µM | 6.62 µM | COc1nn(C)cc1Nc1ncc(F)c(-c2c[nH]c3c(NC(=O)[C@@H](C)N4CCN(C)CC4)cccc23)n1 [Example 25, (2R)-N-(3-{5-Fluoro-2-[(3-methoxy-1-methyl-1H-pyrazol-4-yl)amino]pyrimidin-4-yl}-1H-indol-7-yl)-2-(4-methylpiperazin-1-yl)propanamide]
7 | > 30 µM | 0.986 µM | > 30 µM | COC[C@@H](C(=O)Nc1cccc2c(-c3nc(Nc4cn(C)nc4OC)ncc3C)c[nH]c12)N1CCN(C)CC1 [Example 46, (2S)-3-methoxy-N-(3-{2-[(3-methoxy-1-methyl-1H-pyrazol-4-yl)amino]-5-methylpyrimidin-4-yl}-1H-indol-7-yl)-2-(4-methylpiperazin-1-yl)propanamide]
8 | > 30 µM | 1.21 µM | > 30 µM | CC[C@@H](C(=O)Nc1cccc2c(-c3ccnc(Nc4cn(C)nc4OC)n3)c[nH]c12)N1CCN(C)CC1 [Example 48, (2S)-N-(3-{2-[(3-Methoxy-1-methyl-1H-pyrazol-4-yl)amino]pyrimidin-4-yl}-1H-indol-7-yl)-2-(4-methylpiperazin-1-yl)butanamide]
9 | > 30 µM | 0.009 µM | 6.39 µM | COc1nn(C)cc1Nc1ncc(C)c(-c2c[nH]c3c(NC(=O)[C@@H](C)N4CCN(C)[C@@H](C)C4)cccc23)n1 [Example 14, (2R)-2-[(3S)-3,4-dimethylpiperazin-1-yl]-N-(3-{2-[(3-methoxy-1-methyl-1H-pyrazol-4-yl)amino]-5-methylpyrimidin-4-yl}-1H-indol-7-yl)propanamide]
10 | > 30 µM | 0.106 µM | 11.8 µM | CCN1CCN([C@H](C)C(=O)Nc2cccc3c(-c4ccnc(Nc5cn(C)nc5OC)n4)c[nH]c23)CC1 [Example 28]
11 | > 30 µM | < 0.004 µM | 1.77 µM | CC[C@H](C(=O)Nc1cccc2c(-c3nc(Nc4cn(C)nc4C)ncc3F)c[nH]c12)N1CCN(C)CC1 [Example 49, (2R)-N-(3-{2-[(1,3-dimethyl-1H-pyrazol-4-yl)amino]-5-fluoropyrimidin-4-yl}-1H-indol-7-yl)-2-(4-methylpiperazin-1-yl)butanamide]
12 | > 30 µM | 0.043 µM | 6.57 µM | CCN1CCN([C@H](C)C(=O)Nc2cccc3c(-c4nc(Nc5cn(C)nc5OC)ncc4F)c[nH]c23)CC1 [Example 4, (2R)-2-(4-ethylpiperazin-1-yl)-N-(3-{5-fluoro-2-[(3-methoxy-1-methyl-1H-pyrazol-4-yl)amino]pyrimidin-4-yl}-1H-indol-7-yl)propanamide]
13 | > 30 µM | 0.019 µM | 6.24 µM | CCN1CCN([C@H](C)C(=O)Nc2cccc3c(-c4nc(Nc5cn(C)nc5OC)ncc4C)c[nH]c23)CC1 [Example 16, (2R)-2-(4-ethylpiperazin-1-yl)-N-(3-{2-[(3-methoxy-1-methyl-1H-pyrazol-4-yl)amino]-5-methylpyrimidin-4-yl}-1H-indol-7-yl)propanamide]
14 | > 30 µM | 0.017 µM | 8.85 µM | CCn1cc(Nc2ncc(C)c(-c3c[nH]c4c(NC(=O)[C@@H](C)N5CCN(C)CC5)cccc34)n2)c(OC)n1 [Example 58, (2R)-N-(3-{2-[(1-ethyl-3-methoxy-1H-pyrazol-4-yl)amino]-5-methylpyrimidin-4-yl}-1H-indol-7-yl)-2-(4-methylpiperazin-1-yl)propanamide]
15 | > 30 µM | 0.49 µM | > 30 µM | CCOc1nn(C)cc1Nc1ncc(C)c(-c2c[nH]c3c(NC(=O)[C@@H](C)N4CCN(C)C[C@@H]4C)cccc23)n1 [Example 22, (2R)-2-[(2S)-2,4-dimethylpiperazin-1-yl]-N-(3-{2-[(3-ethoxy-1-methyl-1H-pyrazol-4-yl)amino]-5-methylpyrimidin-4-yl}-1H-indol-7-yl)propanamide]
16 | 19.1 µM | 0.007 µM | 1.76 µM | COc1nn(C)cc1Nc1ncc(Cl)c(-c2c[nH]c3c(NC(=O)[C@@H](C)N4CCN(C)CC4)cccc23)n1 [Example 36, (2R)-N-(3-{5-chloro-2-[(3-methoxy-1-methyl-1H-pyrazol-4-yl)amino]pyrimidin-4-yl}-1H-indol-7-yl)-2-(4-methylpiperazin-1-yl)propanamide]
17 | > 30 µM | 0.085 µM | 12.8 µM | COc1nn(C)cc1Nc1ncc(F)c(-c2c[nH]c3c(NC(=O)[C@@H](C)N4CCN(C)[C@H](C)C4)cccc23)n1 [Example 2, (2R)-2-[(3R)-3,4-dimethylpiperazin-1-yl]-N-(3-{5-fluoro-2-[(3-methoxy-1-methyl-1H-pyrazol-4-yl)amino]pyrimidin-4-yl}-1H-indol-7-yl)propanamide]
18 | > 30 µM | 0.191 µM | 26.8 µM | COCCN1CCN([C@H](C)C(=O)Nc2cccc3c(-c4nc(Nc5cn(C)nc5OC)ncc4F)c[nH]c23)CC1 [Example 3, (2R)-N-(3-{5-fluoro-2-[(3-methoxy-1-methyl-1H-pyrazol-4-yl)amino]pyrimidin-4-yl}-1H-indol-7-yl)-2-[4-(2-methoxyethyl)piperazin-1-yl]propanamide]
19 | > 30 µM | 0.01 µM | 5.37 µM | COc1nn(C)cc1Nc1ncc(C)c(-c2c[nH]c3c(NC(=O)[C@@H](C)N4CCN(C)CC4)cccc23)n1 [Example 34, (2R)-N-(3-{2-[(3-Methoxy-1-methyl-1H-pyrazol-4-yl)amino]-5-methylpyrimidin-4-yl}-1H-indol-7-yl)-2-(4-methylpiperazin-1-yl)propanamide]
20 | > 30 µM | 0.055 µM | 25.5 µM | CCOc1nn(C)cc1Nc1ncc(F)c(-c2c[nH]c3c(NC(=O)[C@@H](C)N4CCN(C)CC4)cccc23)n1 [Example 39, (2R)-N-(3-{2-[(3-ethoxy-1-methyl-1H-pyrazol-4-yl)amino]-5-fluoropyrimidin-4-yl}-1H-indol-7-yl)-2-(4-methylpiperazin-1-yl)propanamide]
21 | > 30 µM | 0.265 µM | 24.1 µM | CC[C@@H](C(=O)Nc1cccc2c(-c3nc(Nc4cn(C)nc4C)ncc3F)c[nH]c12)N1CCN(C)CC1 [Example 50, (2S)-N-(3-{2-[(1,3-dimethyl-1H-pyrazol-4-yl)amino]-5-fluoropyrimidin-4-yl}-1H-indol-7-yl)-2-(4-methylpiperazin-1-yl)butanamide]
22 | > 30 µM | < 0.004 µM | 1.95 µM | CC[C@H](C(=O)Nc1cccc2c(-c3nc(Nc4cn(C)nc4OC)ncc3C)c[nH]c12)N1CCN(C)CC1 [Example 44, (2R)-N-(3-{2-[(3-Methoxy-1-methyl-1H-pyrazol-4-yl)amino]-5-methylpyrimidin-4-yl}-1H-indol-7-yl)-2-(4-methylpiperazin-1-yl)butanamide]
23 | > 30 µM | 0.02 µM | 17 µM | CCOc1nn(C)cc1Nc1ncc(C)c(-c2c[nH]c3c(NC(=O)[C@@H](C)N4CCN(C)CC4)cccc23)n1 [Example 35, (2R)-N-(3-{2-[(3-ethoxy-1-methyl-1H-pyrazol-4-yl)amino]-5-methylpyrimidin-4-yl}-1H-indol-7-yl)-2-(4-methylpiperazin-1-yl)propanamide]
